Data as given in PubChem BioAssay (NCI).
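Values below derive from 48-hour exposures of cells grown in 96-well plates, with endpoints linearly interpolated between the two concentrations bracketing the appropriate inhibition level. TGI marks complete inhibition of growth.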

Legend:
Assay in all cases: inhibition of tumour cell growth, NCI panel, 48 h
[1] = tested on: KM12 colon
[2] = tested on: SR leukemia
[3] = tested on: CAKI-1 renal
[4] = tested on: SF-295 CNS
[5] = tested on: LXFL 529 NSCLC
[6] = tested on: OVCAR-5 ovarian
[7] = tested on: OVCAR-8 ovarian
[8] = tested on: U251 CNS
[9] = tested on: IGROV1 ovarian
[10] = tested on: A549 NSCLC
[11] = tested on: SW-620 colon
[12] = tested on: UACC-62 melanoma
[13] = tested on: CCRF-CEM leukemia
[14] = tested on: UACC-257 melanoma
[15] = tested on: DMS 114 small cell lung
[16] = tested on: NCI-H522 lung
[17] = tested on: HCT-15 colon
[18] = tested on: EKVX NSCLC
[19] = tested on: 786-0 renal
[20] = tested on: SK-MEL-5 melanoma
[21] = tested on: NCI-H226 lung
[22] = tested on: UO-31 renal
[23] = tested on: M14 melanoma
[24] = tested on: HOP-62 NSCLC
[25] = tested on: OVCAR-4 ovarian
[26] = tested on: RPMI-8226 leukemia
[27] = tested on: SNB-19 CNS
[28] = tested on: A498 renal
[29] = tested on: SF-268 CNS
[30] = tested on: SN12C renal
[31] = tested on: LOX IMVI melanoma
[32] = tested on: HOP-92 NSCLC
[33] = tested on: NCI-H23 lung
[34] = tested on: OVCAR-3 ovarian
[35] = tested on: K-562 leukemia
[36] = tested on: XF 498 CNS
[37] = tested on: KM20L2 colon
[38] = tested on: SK-OV-3 ovarian
[39] = tested on: TK-10 renal
[40] = tested on: HT29 colon
[41] = tested on: NCI-H460 lung
[42] = tested on: HCC-2998 colon
[43] = tested on: COLO 205 colon
[44] = tested on: HL-60(TB) leukemia
[45] = tested on: ACHN renal
[46] = tested on: SK-MEL-28 melanoma
[47] = tested on: HOP-18 NSCLC
[48] = tested on: RXF 393 renal
[49] = tested on: SNB-75 CNS
[50] = tested on: SF-539 CNS
[51] = tested on: M19-MEL melanoma
[52] = tested on: DLD-1 colon
[53] = tested on: MALME-3M melanoma
[54] = tested on: HCT-116 colon
[55] = tested on: MOLT-4 leukemia
[56] = tested on: SK-MEL-2 melanoma
[57] = tested on: SNB-78 CNS
[58] = tested on: DMS 273 small cell lung

CCc1cccc(C(C)C)c1NC(=O)C(=O)C1C(=O)NC(=O)NC1=O was tested, and the TGI [1] was > 100 µM, the TGI [2] was > 100 µM and the TGI [3] was > 100 µM. The TGI [4] was > 100 µM, the TGI [5] was > 100 µM and the TGI [6] was > 100 µM. For the same compound, the TGI [7] was > 100 µM, the TGI [8] was > 100 µM and the TGI [9] was > 100 µM. For the same compound, the TGI [10] was > 100 µM, the TGI [11] was > 100 µM and the TGI [12] was > 100 µM. For the same compound, the TGI [13] was > 100 µM, the TGI [14] was > 100 µM and the TGI [15] was > 100 µM. The TGI [16] was > 100 µM, the TGI [17] was > 100 µM and the TGI [18] was > 100 µM. The TGI [19] was > 100 µM, the TGI [20] was > 100 µM and the TGI [21] was > 100 µM. The TGI [22] was > 100 µM, the TGI [23] was > 100 µM and the TGI [24] was > 100 µM. The TGI [25] was > 100 µM, the TGI [26] was > 100 µM and the TGI [27] was > 100 µM. For the same compound, the TGI [28] was > 100 µM, the TGI [29] was > 100 µM and the TGI [30] was > 100 µM. The TGI [31] was > 100 µM, the TGI [32] was > 100 µM and the TGI [33] was > 100 µM. The TGI [34] was > 100 µM, the TGI [35] was > 100 µM and the TGI [36] was > 100 µM. The TGI [37] was > 100 µM, the TGI [38] was > 100 µM and the TGI [39] was > 100 µM. For the same compound, the TGI [40] was > 100 µM, the TGI [41] was > 100 µM and the TGI [42] was > 100 µM. For the same compound, the TGI [43] was > 100 µM, the TGI [44] was > 100 µM and the TGI [45] was > 100 µM. The TGI [46] was > 100 µM, the TGI [47] was > 100 µM and the TGI [48] was > 100 µM. For the same compound, the TGI [49] was > 100 µM, the TGI [50] was > 100 µM and the TGI [51] was > 100 µM. For the same compound, the TGI [52] was > 100 µM, the TGI [53] was > 100 µM and the TGI [54] was > 100 µM.

Cc1[nH]c2c(C)cccc2c1C1Cc2ccccc2N1 (configuration not stated) gave a TGI [1] of 32.4 µM, a TGI [2] of 66.7 µM and a TGI [4] of 41 µM. For the same compound, the TGI [55] was 48.3 µM, the TGI [5] was 36.4 µM and the TGI [6] was 41.3 µM. The TGI [56] was 54.3 µM, the TGI [7] was 40.2 µM and the TGI [8] was 41.4 µM. The TGI [9] was 36.7 µM, the TGI [10] was 62.2 µM and the TGI [11] was 56.4 µM. For the same compound, the TGI [12] was 32.8 µM, the TGI [13] was 74.1 µM and the TGI [14] was 42.7 µM. For the same compound, the TGI [15] was 45.2 µM, the TGI [16] was 41.2 µM and the TGI [17] was 49.2 µM. For the same compound, the TGI [18] was 35.9 µM, the TGI [19] was 46.9 µM and the TGI [20] was 33.4 µM. It also gave a TGI [21] of 57.1 µM, a TGI [22] of 65.7 µM and a TGI [23] of 29.6 µM. The TGI [24] was 32.3 µM, the TGI [26] was 74.6 µM and the TGI [27] was 69.8 µM. It also gave a TGI [28] of 87.7 µM, a TGI [29] of 48.2 µM and a TGI [30] of 41 µM. For the same compound, the TGI [31] was 31 µM, the TGI [32] was 0.0966 µM and the TGI [33] was 39.8 µM. It also gave a TGI [34] of 33 µM, a TGI [35] of 67 µM and a TGI [36] of 38.4 µM. The TGI [37] was 31.4 µM, the TGI [38] was > 100 µM and the TGI [39] was 62.2 µM. The TGI [40] was 35.3 µM, the TGI [41] was 51.7 µM and the TGI [43] was 32.3 µM. The TGI [44] was 43 µM, the TGI [45] was 74.9 µM and the TGI [46] was 36.7 µM. The TGI [47] was 35.2 µM, the TGI [48] was 23.1 µM and the TGI [49] was > 100 µM. The TGI [50] was 33.7 µM, the TGI [51] was 46.1 µM and the TGI [52] was 79.8 µM. The TGI [53] was 41.7 µM and the TGI [54] was 30.9 µM.

CCNC(=S)NNC(=O)c1nsc2ccccc12 was tested, and the TGI [1] was > 100 µM, the TGI [2] was > 100 µM and the TGI [55] was > 100 µM. For the same compound, the TGI [5] was > 100 µM, the TGI [6] was > 100 µM and the TGI [56] was > 100 µM. For the same compound, the TGI [7] was > 100 µM, the TGI [8] was > 100 µM and the TGI [9] was > 100 µM. For the same compound, the TGI [10] was > 100 µM, the TGI [11] was > 100 µM and the TGI [12] was > 100 µM. For the same compound, the TGI [13] was > 100 µM, the TGI [14] was > 100 µM and the TGI [15] was > 100 µM. The TGI [17] was > 100 µM, the TGI [18] was > 100 µM and the TGI [20] was > 100 µM. The TGI [22] was > 100 µM, the TGI [23] was > 100 µM and the TGI [24] was > 100 µM. The TGI [25] was > 100 µM, the TGI [26] was > 100 µM and the TGI [27] was > 100 µM. For the same compound, the TGI [29] was > 100 µM, the TGI [30] was > 100 µM and the TGI [31] was > 100 µM. For the same compound, the TGI [32] was > 100 µM, the TGI [33] was > 100 µM and the TGI [34] was > 100 µM. The TGI [35] was > 100 µM, the TGI [37] was > 100 µM and the TGI [39] was > 100 µM. The TGI [40] was > 100 µM, the TGI [41] was > 100 µM and the TGI [42] was > 100 µM. For the same compound, the TGI [43] was > 100 µM, the TGI [44] was > 100 µM and the TGI [45] was > 100 µM. For the same compound, the TGI [46] was > 100 µM, the TGI [47] was > 100 µM and the TGI [48] was > 100 µM. For the same compound, the TGI [49] was > 100 µM, the TGI [50] was > 100 µM and the TGI [51] was > 100 µM. The TGI [57] was > 100 µM, the TGI [58] was > 100 µM and the TGI [54] was > 100 µM.

For CC1CC2=C(C(=O)O1)C(c1ccccc1)Nc1ccccc1N2 (configuration not stated), the TGI [1] was > 100 µM, the TGI [2] was > 100 µM and the TGI [55] was > 100 µM. For the same compound, the TGI [5] was > 100 µM, the TGI [6] was > 100 µM and the TGI [56] was > 100 µM. The TGI [7] was > 100 µM, the TGI [8] was > 100 µM and the TGI [9] was > 100 µM. For the same compound, the TGI [10] was > 100 µM, the TGI [11] was > 100 µM and the TGI [12] was > 100 µM. The TGI [13] was > 100 µM, the TGI [14] was > 100 µM and the TGI [15] was > 100 µM. The TGI [16] was > 100 µM, the TGI [17] was > 100 µM and the TGI [18] was > 100 µM. For the same compound, the TGI [19] was > 100 µM, the TGI [20] was > 100 µM and the TGI [21] was > 100 µM. For the same compound, the TGI [22] was > 100 µM, the TGI [23] was > 100 µM and the TGI [24] was > 100 µM. The TGI [27] was > 100 µM, the TGI [28] was > 100 µM and the TGI [29] was > 100 µM. For the same compound, the TGI [30] was > 100 µM, the TGI [31] was > 100 µM and the TGI [33] was > 100 µM. The TGI [34] was > 100 µM, the TGI [35] was > 100 µM and the TGI [37] was > 100 µM. The TGI [38] was > 100 µM, the TGI [39] was > 100 µM and the TGI [40] was > 100 µM. For the same compound, the TGI [41] was > 100 µM, the TGI [42] was > 100 µM and the TGI [43] was > 100 µM. For the same compound, the TGI [44] was > 100 µM, the TGI [45] was > 100 µM and the TGI [46] was > 100 µM. The TGI [47] was > 100 µM, the TGI [48] was > 100 µM and the TGI [49] was > 100 µM. The TGI [50] was > 100 µM, the TGI [51] was > 100 µM and the TGI [52] was > 100 µM. For the same compound, the TGI [57] was > 100 µM, the TGI [53] was > 100 µM and the TGI [58] was > 100 µM. For the same compound, the TGI [54] was > 100 µM.
